Measurements: PubChem BioAssay (NCI)
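Results reflect a 48-hour exposure of cells in 96-well plates to compound at five concentrations. At the TGI there is no net growth.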

Tests used:
Assay in all cases: NCI tumour cell line growth inhibition, 48 h
HT29 colon = test system: HT29 colon
RPMI-8226 leukemia = test system: RPMI-8226 leukemia
MOLT-4 leukemia = test system: MOLT-4 leukemia
HCT-116 colon = test system: HCT-116 colon
OVCAR-8 ovarian = test system: OVCAR-8 ovarian
SR leukemia = test system: SR leukemia
LOX IMVI melanoma = test system: LOX IMVI melanoma
UACC-257 melanoma = test system: UACC-257 melanoma
U251 CNS = test system: U251 CNS
SF-295 CNS = test system: SF-295 CNS
MDA-MB-231 breast = test system: MDA-MB-231 breast
HL-60(TB) leukemia = test system: HL-60(TB) leukemia

Row | SMILES | TGI (HT29 colon) | TGI (RPMI-8226 leukemia) | TGI (MOLT-4 leukemia) | TGI (HCT-116 colon) | TGI (OVCAR-8 ovarian) | TGI (SR leukemia) | TGI (LOX IMVI melanoma) | TGI (UACC-257 melanoma) | TGI (U251 CNS) | TGI (SF-295 CNS) | TGI (MDA-MB-231 breast) | TGI (HL-60(TB) leukemia)
1 | O=Cc1ccc(Oc2c3ccccc3nc3ccccc23)cc1 | 4.38 µM | 5.95 µM | 6.08 µM | 4.9 µM | 21 µM | 7.19 µM | 11.7 µM | 4.89 µM | 21.9 µM | 55.4 µM | 13.3 µM | –
2 | Cc1nc2c(ccc3[nH]c4ccccc4c32)s1 | 31.3 µM | – | 86.2 µM | 37.2 µM | > 100 µM | 87.8 µM | – | > 100 µM | 54.3 µM | – | 36.4 µM | > 100 µM
3 | COc1ccc(C2=Nn3c(C)nnc3S/C2=C\c2ccc(-c3ccc([N+](=O)[O-])cc3)o2)cc1 | 43 µM | 15.5 µM | 18 µM | 26.1 µM | 15.9 µM | – | 30.3 µM | 54.7 µM | 45.8 µM | > 100 µM | > 100 µM | 73.5 µM
4 | COc1ccc(/C=C2\NC(=S)N(CN3CCOCC3)C2=O)cc1 | > 100 µM | > 100 µM | > 100 µM | > 100 µM | > 100 µM | > 100 µM | > 100 µM | > 100 µM | > 100 µM | > 100 µM | > 100 µM | –
5 | O=c1ccc2c(Cl)sc(Cl)c2[nH]1 | > 100 µM | > 100 µM | > 100 µM | > 100 µM | > 100 µM | – | > 100 µM | > 100 µM | > 100 µM | > 100 µM | > 100 µM | –
6 | CSc1c(C#N)c(=O)n(N)c2n[nH]c(C)c12 | > 100 µM | > 100 µM | > 100 µM | > 100 µM | > 100 µM | > 100 µM | > 100 µM | > 100 µM | > 100 µM | – | > 100 µM | > 100 µM
7 | CCOC(=O)C(/C=N/C(N)=S)=C(/O)c1ccccc1 | > 100 µM | – | > 100 µM | > 100 µM | > 100 µM | – | > 100 µM | > 100 µM | > 100 µM | > 100 µM | > 100 µM | > 100 µM
8 | COc1ccc(-c2nc3ccccc3c(=O)[nH]2)cc1OC | > 100 µM | > 100 µM | > 100 µM | > 100 µM | 67.5 µM | > 100 µM | – | > 100 µM | 80.5 µM | > 100 µM | 77 µM | –
9 | COC(=O)C1=C(C(=O)OC)C2CCC1CC2=O (configuration not stated) | > 100 µM | > 100 µM | > 100 µM | > 100 µM | > 100 µM | > 100 µM | > 100 µM | > 100 µM | > 100 µM | > 100 µM | > 100 µM | –
10 | COc1ccccc1N1C(=O)/C(=C\c2ccccc2)SC1c1cc(OC)c(OC)c(OC)c1 (configuration not stated) | > 100 µM | – | > 100 µM | > 100 µM | > 100 µM | > 100 µM | 50.3 µM | > 100 µM | 74.2 µM | > 100 µM | 71.3 µM | –
11 | O=CC1C(=O)Nc2nc3ccccc3n2C1c1ccccc1 (configuration not stated) | 41.2 µM | 70.4 µM | 5.73 µM | 24.9 µM | 46.1 µM | – | 23.1 µM | 33.3 µM | 29.1 µM | 43.8 µM | 44.3 µM | > 100 µM
12 | Nc1nc(=O)n(C2CC(O)C(CO)O2)c2nc(-c3ccc(-c4ccccc4)cc3)cnc12 (configuration not stated) | > 100 µM | > 100 µM | 76 µM | > 100 µM | > 100 µM | > 100 µM | > 100 µM | > 100 µM | 42.6 µM | > 100 µM | 50.1 µM | –
13 | O=CN/C=C\c1cc(O)ccc1O | > 31.6 µM | 44.6 µM | 70.6 µM | 25.2 µM | 32.1 µM | 21.3 µM | 22.7 µM | 19.2 µM | > 81 µM | > 100 µM | – | 47.8 µM
14 | C[C@H](N)C(=O)Nc1ccc(-c2nc3ccccc3s2)cc1Cl | 32.8 µM | – | 40 µM | 24.5 µM | > 100 µM | 13.9 µM | > 100 µM | 34.4 µM | 29.1 µM | 33.9 µM | – | –
15 | C[C@H](OC(=O)/C=C/c1ccc(O)c(O)c1)[C@H](C)OC(=O)/C=C/c1ccc(O)c(O)c1 | > 100 µM | > 100 µM | > 100 µM | 23.3 µM | 26.2 µM | > 100 µM | 22.6 µM | 29.7 µM | > 100 µM | 19.8 µM | 35.9 µM | –
